# Reference: ChEMBL document CHEMBL4346715, “Antibacterial activity study of 1,2,4-triazole derivatives” (Eur J Med Chem, 2019)
# Assays:
# Staphylococcus aureus [1] = assay: Antibacterial activity against methicillin-resistant Staphylococcus aureus incubated for 18 hrs post 30 mins pre-diffusion by disk diffusion method; assay type: functional
# Bacillus anthracis = assay: Antibacterial activity against Bacillus anthracis incubated for 18 hrs post 30 mins pre-diffusion by disk diffusion method; assay type: functional
# Staphylococcus aureus [2] = assay: Antibacterial activity against Staphylococcus aureus assessed as zone of inhibition; assay type: functional
# Salmonella typhimurium = assay: Antibacterial activity against Salmonella typhimurium assessed as zone of inhibition; assay type: functional, Salmonella enterica subsp. enterica serovar Typhimurium
# Escherichia coli [3] = assay: Antibacterial activity against Escherichia coli assessed as zone of inhibition; assay type: functional
# Bacillus subtilis [4] = assay: Antibacterial activity against Bacillus subtilis assessed as zone of inhibition; assay type: functional
# Escherichia coli [5] = assay: Antibacterial activity against Escherichia coli incubated for 18 hrs post 30 mins pre-diffusion by disk diffusion method; assay type: functional
# Bacillus subtilis [6] = assay: Antibacterial activity against Bacillus subtilis incubated for 18 hrs post 30 mins pre-diffusion by disk diffusion method; assay type: functional
# Micrococcus luteus = assay: Antibacterial activity against Micrococcus luteus incubated for 18 hrs post 30 mins pre-diffusion by disk diffusion method; assay type: functional
# Listeria innocua = assay: Antibacterial activity against Listeria innocua incubated for 18 hrs post 30 mins pre-diffusion by disk diffusion method; assay type: functional
# Bacillus subtilis [7] = assay: Antibacterial activity against Bacillus subtilis; assay type: functional
# Staphylococcus aureus [8] = assay: Antibacterial activity against Staphylococcus aureus; assay type: functional
# Streptococcus pneumoniae = assay: Antibacterial activity against Streptococcus pneumoniae; assay type: functional
# Escherichia coli [9] = assay: Antibacterial activity against Escherichia coli; assay type: functional
# Clostridium tetani = assay: Antibacterial activity against Clostridium tetani; assay type: functional
# Pseudomonas aeruginosa [10] = assay: Antibacterial activity against Pseudomonas aeruginosa; assay type: functional
# Listeria monocytogenes [11] = assay: Potency index, ratio of ciprofloxacin MIC to test compound MIC for Listeria monocytogenes ATCC 35152 after 24 hrs by broth microdilution method; assay type: functional
# Pseudomonas aeruginosa [12] = assay: Potency index, ratio of ciprofloxacin MIC to test compound MIC for Pseudomonas aeruginosa ATCC 27853 after 24 hrs by broth microdilution method; assay type: functional
# Listeria monocytogenes [13] = assay: Antibacterial activity against Listeria monocytogenes ATCC 35152 after 24 hrs by broth microdilution method; assay type: functional; details: ATCC 35152, 24 h
# Pseudomonas aeruginosa [14] = assay: Antibacterial activity against Pseudomonas aeruginosa ATCC 27853 after 24 hrs by broth microdilution method; assay type: functional; details: ATCC 27853, 24 h
# Staphylococcus aureus [15] = assay: Antibacterial activity against Staphylococcus aureus ATCC 25923 after 24 hrs by microdilution method; assay type: functional; details: ATCC 25923, 24 h
# Candida albicans [16] = assay: Antifungal activity against Candida albicans ATCC 50193 after 24 hrs by microdilution method; assay type: functional; details: ATCC 50193, 24 h
# Escherichia coli [17] = assay: Antibacterial activity against Escherichia coli ATCC 25922 after 24 hrs by microdilution method; assay type: functional; details: ATCC 25922, 24 h
# Aspergillus brasiliensis = assay: Antifungal activity against Aspergillus brasiliensis ATCC 16404 after 24 hrs by microdilution method; assay type: functional; details: ATCC 16404, 24 h
# Proteus mirabilis = assay: Antibacterial activity against Proteus mirabilis ATCC 35659 after 24 hrs by microdilution method; assay type: functional; details: ATCC 35659, 24 h
# Pseudomonas aeruginosa [18] = assay: Antibacterial activity against Pseudomonas aeruginosa ATCC 27853 after 24 hrs by microdilution method; assay type: functional; details: ATCC 27853, 24 h
# Bacillus cereus = assay: Antibacterial activity against Bacillus cereus ATCC 10876 after 24 hrs by microdilution method; assay type: functional; details: ATCC 10876, 24 h
# Enterococcus faecalis = assay: Antibacterial activity against Enterococcus faecalis ATCC 29212 after 24 hrs by microdilution method; assay type: functional; details: ATCC 29212, 24 h
# Candida albicans [19] = assay: Antifungal activity against Candida albicans; assay type: functional
# Aspergillus niger = assay: Antifungal activity against Aspergillus niger; assay type: functional
molecule,measurement,setting,value
POLYMYXIN B,MIC,Staphylococcus aureus [1],31 to 1000 µg/mL
same,MIC,Bacillus anthracis,31 to 1000 µg/mL
Fc1ccc(-c2nc(-c3ccccc3)c(-c3ccccc3)n2-n2c(-c3ccc(Cl)cc3)n[nH]c2=S)cc1,inhibition zone (IZ),Staphylococcus aureus [2],10 - 18 mm
same,inhibition zone (IZ),Salmonella typhimurium,10 - 18 mm
same,inhibition zone (IZ),Escherichia coli [3],10 - 18 mm
same,inhibition zone (IZ),Bacillus subtilis [4],10 - 18 mm
Cn1cnc(CN(CCCO)Cc2ncn(C)n2)n1,MIC,Escherichia coli [5],7 to 15 µg/mL
same,MIC,Bacillus subtilis [6],7 to 15 µg/mL
same,MIC,Micrococcus luteus,7 to 15 µg/mL
same,MIC,Listeria innocua,7 to 15 µg/mL
CC1(C)S[C@@H]2[C@H](NC(=O)[C@H](N)c3ccccc3)C(=O)N2[C@H]1C(=O)O [AMPICILLIN],MIC,Bacillus subtilis [7],100 to 250 µg/mL
same,MIC,Staphylococcus aureus [8],10.9 µg/mL
same,MIC,Streptococcus pneumoniae,100 to 250 µg/mL
same,MIC,Escherichia coli [9],100 to 250 µg/mL
same,MIC,Clostridium tetani,100 to 250 µg/mL
same,MIC,Pseudomonas aeruginosa [10],10.2 µg/mL
same,MIC,Staphylococcus aureus [1],31 to 1000 µg/mL
same,MIC,Bacillus anthracis,31 to 1000 µg/mL
COc1ccccc1/C=N/n1c(S)nnc1-c1sc(-c2ccccc2)nc1C,Ratio,Listeria monocytogenes [11],2
same,Ratio,Pseudomonas aeruginosa [12],2
same,MIC,Listeria monocytogenes [13],1.95 µg/mL
same,MIC,Pseudomonas aeruginosa [14],1.95 µg/mL
CCCCCCCCCCCCCCn1nnc(-c2n[nH]c(=S)n2-c2ccccc2)c1-c1n[nH]c(=S)n1-c1ccccc1,MIC,Staphylococcus aureus [15],1 to 128 µg/mL
same,MIC,Candida albicans [16],1 to 128 µg/mL
same,MIC,Escherichia coli [17],1 to 128 µg/mL
same,MIC,Aspergillus brasiliensis,1 to 128 µg/mL
same,MIC,Proteus mirabilis,1 to 128 µg/mL
same,MIC,Pseudomonas aeruginosa [18],1 to 128 µg/mL
same,MIC,Bacillus cereus,1 to 128 µg/mL
same,MIC,Enterococcus faecalis,1 to 128 µg/mL
CCCCCCCCCCCCn1nnc(-c2n[nH]c(=S)n2-c2ccccc2)c1-c1n[nH]c(=S)n1-c1ccccc1,MIC,Staphylococcus aureus [15],1 to 128 µg/mL
same,MIC,Candida albicans [16],1 to 128 µg/mL
same,MIC,Escherichia coli [17],1 to 128 µg/mL
same,MIC,Aspergillus brasiliensis,1 to 128 µg/mL
same,MIC,Proteus mirabilis,1 to 128 µg/mL
same,MIC,Pseudomonas aeruginosa [18],1 to 128 µg/mL
same,MIC,Bacillus cereus,1 to 128 µg/mL
same,MIC,Enterococcus faecalis,1 to 128 µg/mL
Cc1nc(-c2ccccc2)sc1-c1nnc(S)n1/N=C/c1cccs1,Ratio,Listeria monocytogenes [11],2
same,Ratio,Pseudomonas aeruginosa [12],2
same,MIC,Listeria monocytogenes [13],1.95 µg/mL
same,MIC,Pseudomonas aeruginosa [14],1.95 µg/mL
CC[C@H]1OC(=O)[C@H](C)[C@@H](O[C@H]2C[C@@](C)(OC)[C@@H](O)[C@H](C)O2)[C@H](C)[C@@H](O[C@@H]2O[C@H](C)C[C@H](N(C)C)[C@H]2O)[C@](C)(O)C[C@@H](C)C(=O)[C@H](C)[C@@H](O)[C@]1(C)O [ERYTHROMYCIN],MIC,Staphylococcus aureus [1],31 to 1000 µg/mL
same,MIC,Bacillus anthracis,31 to 1000 µg/mL
NC[C@H]1O[C@H](O[C@H]2[C@H](O)[C@@H](O[C@H]3O[C@H](CO)[C@@H](O)[C@H](N)[C@H]3O)[C@H](N)C[C@@H]2N)[C@H](O)[C@@H](O)[C@@H]1O [KANAMYCIN],MIC,Staphylococcus aureus [1],31 to 1000 µg/mL
same,MIC,Bacillus anthracis,31 to 1000 µg/mL
CCCCCCCCCCCCCCCCn1nnc(-c2n[nH]c(=S)n2N)c1-c1n[nH]c(=S)n1N,MIC,Staphylococcus aureus [15],1 to 128 µg/mL
same,MIC,Candida albicans [16],1 to 128 µg/mL
same,MIC,Escherichia coli [17],1 to 128 µg/mL
same,MIC,Aspergillus brasiliensis,1 to 128 µg/mL
same,MIC,Proteus mirabilis,1 to 128 µg/mL
same,MIC,Pseudomonas aeruginosa [18],1 to 128 µg/mL
same,MIC,Bacillus cereus,1 to 128 µg/mL
same,MIC,Enterococcus faecalis,1 to 128 µg/mL
OC(Cn1cncn1)(Cn1cncn1)c1ccc(F)cc1F [FLUCONAZOLE],MIC,Staphylococcus aureus [15],4 µg/mL
same,MIC,Candida albicans [16],1 µg/mL
same,MIC,Escherichia coli [17],4 µg/mL
same,MIC,Aspergillus brasiliensis,1 µg/mL
same,MIC,Proteus mirabilis,4 µg/mL
same,MIC,Candida albicans [19],10.2 µg/mL
same,MIC,Pseudomonas aeruginosa [18],4 µg/mL
same,MIC,Aspergillus niger,9.4 µg/mL
same,MIC,Bacillus cereus,4 µg/mL
same,MIC,Enterococcus faecalis,4 µg/mL
COc1cccc(/C=N/n2c(S)nnc2-c2sc(-c3ccccc3)nc2C)c1,Ratio,Listeria monocytogenes [11],2
same,Ratio,Pseudomonas aeruginosa [12],2
same,MIC,Listeria monocytogenes [13],1.95 µg/mL
same,MIC,Pseudomonas aeruginosa [14],1.95 µg/mL
Cc1nc(-c2ccccc2)sc1-c1nnc(S)n1/N=C/c1ccc(N(C)C)cc1,Ratio,Listeria monocytogenes [11],2
same,Ratio,Pseudomonas aeruginosa [12],2
same,MIC,Listeria monocytogenes [13],1.95 µg/mL
same,MIC,Pseudomonas aeruginosa [14],1.95 µg/mL
Cc1nc(-c2ccccc2)sc1-c1nnc(S)n1/N=C/c1ccc([N+](=O)[O-])cc1,Ratio,Listeria monocytogenes [11],2
same,Ratio,Pseudomonas aeruginosa [12],2
same,MIC,Listeria monocytogenes [13],1.95 µg/mL
same,MIC,Pseudomonas aeruginosa [14],1.95 µg/mL
